Test results taken from patent US6767569B1, “Surface decontamination of cooked sausage and processed meat and poultry products” (priority 1999, dated 2004).
Values joined by “and” are separate entries in the source; they are usually repeats but may differ in a detail not shown here. Equal values may be shown once. Marks after values point to notes of the source that are not given here.

Experiments:
Listeria monocytogenes = experiment: Dip treatment of Listeria monocytogenes-inoculated frankfurters, quantitative plating on MOX agar; type: cell-based
Protocol: A five-strain mixture of Listeria monocytogenes was used for purposes of inoculation. To prepare this mixture, five strains of L. monocytogenes were grown individually in tryptic soy broth (TSB), for 48±2 h at 30° C. Equivalent aliquots of broth from each strain were then combined in a sterile test tube to achieve a mixed inoculum containing approximately equal populations of each of the five strains. The mixed culture was diluted as appropriate using 0.1% peptone diluent to achieve a final mixed inoculum with a cell density of approximately 10,000 colony forming units (cfu)/ml.
Packages of commercially prepared beef frankfurter sausages (“franks”) were obtained from a local retail outlet. The packages were stored at 4° C. until use (no more than 24 hours). Immediately prior to testing, the franks were removed from the commercial packaging and placed on a sterile surface in a biological safety cabinet. The franks were oriented on the surface such that no franks were in contact with each other. Using a micropipette, each individual frank (except for those used as controls) was inoculated with 0.1 ml of the previously prepared mixed inoculum with a target inoculation level of 1,000 cfu/frank. A sterile bent rod was used to spread the inoculum over the frank surface as evenly as possible. Inoculated franks were allowed to remain undisturbed on the sterile surface for at least 5 minutes prior to treatment with the decontaminant solution. Three franks were inoculated per treatment to be evaluated, one frank being tested without inoculation.
The peracetic acid used in the evaluation was obtained as a 35% concentrate under the trade name STERIS 20™ Sterilant Concentrate from STERIS Corporation (Mentor, Ohio). The concentrate was used without the buffers or other additives supplied by the manufacturer. The concentrate was diluted to appropriate nominal concentrations (100, 500, and 1000 ppm). Approximately 1 L of each concentration to be evaluated was prepared in sanitized 2 L, plastic containers. Additionally, 1 L of a control treatment, namely sterile distilled water (0 ppm peracetic acid), was also prepared in a 2 L container. Each of these four concentrations was evaluated using two exposure times, 2 and 10 seconds. Therefore, a total of eight treatments (four peracetic acid concentrations (0, 100, 500, and 1000 ppm) at two exposure times (2 and 10 seconds) were evaluated in this study. Each test was carried out two or more times for establishing reproducibility.
All peracetic acid treatments were performed inside a biological safety cabinet. Inoculated franks were dipped into the peracetic acid treatment solution (or distilled water for the 0 ppm samples) and allowed to remain submerged for either 2 or 10 seconds. Sterile utensils were employed to remove the franks from the treatment solution and transfer them to a sterile distilled water rinse. Franks were then submerged in a sterile water rinse and remained submerged for 2 or 10 seconds (i.e., the same time as they were exposed to the peracetic acid solution) and were removed with sterile utensils. Immediately after removal from the sterile water rinse, the franks were placed on a sterile surface and allowed to air dry for 5 minutes.
Following air drying, one frank per treatment was placed in a sterile Stomacher bag and analyzed quantitatively for residual L. monocytogenes populations. The remaining two franks were retained in sterile Stomacher bags and used for qualitative analysis, if necessary (in the event no surviving cells were detected using quantitative procedures).
To determine the number of surviving L. monocytogenes cells (quantitative evaluation), one frank per treatment was analyzed. The weight of the frank was determined and an appropriate volume of 0.1% peptone diluent added to achieve a 1:5 dilution. These samples were homogenized for 2 minutes using a Stomacher Lab Blender. […]

Listeria = experiment: Further tests: peracetic acid sprayed over the frankfurters; type: cell-based, Listeria monocytogenes; settings: 2000 ppm sprayed over the frankfurters for 30 seconds to one minute

## CC(=O)OO [peracetic acid]
Listeria monocytogenes; PAA 100 ppm (actual 114 ppm), 2 sec exposure followed by 2 sec deionized water rinse
  After treatment (CFU/frank): 180 CFU/frank and <90* CFU/frank and 90 CFU/frank
Listeria monocytogenes; PAA 100 ppm (actual 114 ppm), 2 sec exposure followed by 2 sec deionized water rinse, listed as PAA
  After treatment (CFU/frank): at least 90 CFU/frank
Listeria monocytogenes; PAA 100 ppm (actual 114 ppm), 10 sec exposure followed by 10 sec deionized water rinse, target inoculation 1,000 CFU/frank
  After treatment (CFU/frank): <90* CFU/frank and 180 CFU/frank
Listeria monocytogenes; PAA 100 ppm (actual 114 ppm), 10 sec exposure followed by 10 sec deionized water rinse, target inoculation 1,000 CFU/frank, listed as PAA
  After treatment (CFU/frank): at least 90 CFU/frank
Listeria monocytogenes; PAA 500 ppm (actual 572 ppm), 2 sec exposure followed by 2 sec deionized water rinse
  After treatment (CFU/frank): <90* CFU/frank and 90 CFU/frank
Listeria monocytogenes; PAA 500 ppm (actual 572 ppm), 2 sec exposure followed by 2 sec deionized water rinse, listed as PAA
  After treatment (CFU/frank): < 90 CFU/frank
Listeria monocytogenes; PAA 500 ppm (actual 572 ppm), 10 sec exposure followed by 10 sec deionized water rinse
  After treatment (CFU/frank): <90* CFU/frank
Listeria monocytogenes; PAA 500 ppm (actual 572 ppm), 10 sec exposure followed by 10 sec deionized water rinse, listed as PAA
  After treatment (CFU/frank): less than the detection limit of the quantitative plating procedure
Listeria monocytogenes; PAA 1000 ppm (actual 1146 ppm), 2 sec exposure followed by 2 sec deionized water rinse
  After treatment (CFU/frank): <90* CFU/frank
Listeria monocytogenes; PAA 1000 ppm (actual 1146 ppm), 2 sec exposure followed by 2 sec deionized water rinse, listed as PAA
  After treatment (CFU/frank): < 90 CFU/frank
Listeria monocytogenes; PAA 1000 ppm (actual 1146 ppm), 10 sec exposure followed by 10 sec deionized water rinse
  After treatment (CFU/frank): <90* CFU/frank
Listeria monocytogenes; PAA 1000 ppm (actual 1146 ppm), 10 sec exposure followed by 10 sec deionized water rinse, listed as PAA
  After treatment (CFU/frank): < 90 CFU/frank
Listeria
  kill level: complete kill
